ChEMBL document CHEMBL3045802, “Synthesis and in vitro antitumor activity of new quinoline, pyrimido[4,5-b]quinoline, [1,2,3]triazino[4,5-b]quinoline, and [1,2,4]triazolo[2,3:3,4]pyrimido[6,5-b]quinoline analogs” (2013)

Experiments:
Type in all cases: functional
[1] = tested on: HOP-62; test: Cytotoxicity against Homo sapiens (human) HOP62 cells assessed as growth inhibition at 10 uM after 48 hr by coulter counter analysis; conditions: HOP-62, 48 h, read-out: GI
[2] = tested on: TK-10; test: Cytotoxicity against Homo sapiens (human) TK10 cells assessed as growth inhibition at 10 uM after 48 hr by coulter counter analysis; conditions: TK-10, 48 h, read-out: GI
[3] = tested on: OVCAR-8; test: Cytotoxicity against Homo sapiens (human) OVCAR8 cells assessed as growth inhibition at 10 uM after 48 hr by coulter counter analysis; conditions: OVCAR-8, 48 h, read-out: GI
[4] = tested on: A549; test: Cytotoxicity against Homo sapiens (human) A549 cells assessed as growth inhibition at 10 uM after 48 hr by coulter counter analysis; conditions: A549, 48 h, read-out: GI
[5] = tested on: SK-MEL-28; test: Cytotoxicity against Homo sapiens (human) SK-MEL-28 cells assessed as growth inhibition at 10 uM after 48 hr by coulter counter analysis; conditions: SK-MEL-28, 48 h, read-out: GI
[6] = tested on: DU-145; test: Cytotoxicity against Homo sapiens (human) DU145 cells assessed as growth inhibition at 10 uM after 48 hr by coulter counter analysis; conditions: DU-145, 48 h, read-out: GI
[7] = tested on: BT-549; test: Cytotoxicity against Homo sapiens (human) BT549 cells assessed as growth inhibition at 10 uM after 48 hr by coulter counter analysis; conditions: BT-549, 48 h, read-out: GI
[8] = tested on: SF-268; test: Cytotoxicity against Homo sapiens (human) SF268 cells assessed as growth inhibition at 10 uM after 48 hr by coulter counter analysis; conditions: SF-268, 48 h, read-out: GI
[9] = tested on: SNB-19; test: Cytotoxicity against Homo sapiens (human) SNB19 cells assessed as growth inhibition at 10 uM after 48 hr by coulter counter analysis; conditions: SNB-19, 48 h, read-out: GI
[10] = tested on: SR; test: Cytotoxicity against Homo sapiens (human) SR cells assessed as growth inhibition at 10 uM after 48 hr by coulter counter analysis; conditions: read-out: GI
[11] = tested on: NCI-H23; test: Cytotoxicity against Homo sapiens (human) NCI-H23 cells assessed as growth inhibition at 10 uM after 48 hr by coulter counter analysis; conditions: NCI-H23, 48 h, read-out: GI
[12] = tested on: IGROV-1; test: Cytotoxicity against Homo sapiens (human) IGROV1 cells assessed as growth inhibition at 10 uM after 48 hr by coulter counter analysis; conditions: IGROV-1, 48 h, read-out: GI
[13] = tested on: HCT-116; test: Cytotoxicity against Homo sapiens (human) HCT116 cells assessed as growth inhibition at 10 uM after 48 hr by coulter counter analysis; conditions: HCT-116, 48 h, read-out: GI
[14] = tested on: MDA-MB-468; test: Cytotoxicity against Homo sapiens (human) MDA-MB-468 cells assessed as growth inhibition at 10 uM after 48 hr by coulter counter analysis; conditions: MDA-MB-468, 48 h, read-out: GI
[15] = tested on: NCI-H460; test: Cytotoxicity against Homo sapiens (human) NCI-H460 cells assessed as growth inhibition at 10 uM after 48 hr by coulter counter analysis; conditions: NCI-H460, 48 h, read-out: GI
[16] = tested on: UO-31; test: Cytotoxicity against Homo sapiens (human) UO31 cells assessed as growth inhibition at 10 uM after 48 hr by coulter counter analysis; conditions: UO-31, 48 h, read-out: GI
[17] = tested on: PC-3; test: Cytotoxicity against Homo sapiens (human) PC3 cells assessed as growth inhibition at 10 uM after 48 hr by coulter counter analysis; conditions: PC-3, 48 h, read-out: GI
[18] = tested on: NCI-H522; test: Cytotoxicity against Homo sapiens (human) NCI-H522 cells assessed as growth inhibition at 10 uM after 48 hr by coulter counter analysis; conditions: NCI-H522, 48 h, read-out: GI
[19] = tested on: HCT-15; test: Cytotoxicity against Homo sapiens (human) HCT15 cells assessed as growth inhibition at 10 uM after 48 hr by coulter counter analysis; conditions: HCT-15, 48 h, read-out: GI
[20] = tested on: OVCAR-5; test: Cytotoxicity against Homo sapiens (human) OVCAR5 cells assessed as growth inhibition at 10 uM after 48 hr by coulter counter analysis; conditions: OVCAR-5, 48 h, read-out: GI
[21] = tested on: COLO 205; test: Cytotoxicity against Homo sapiens (human) COLO205 cells assessed as growth inhibition at 10 uM after 48 hr by coulter counter analysis; conditions: COLO 205, 48 h, read-out: GI
[22] = tested on: 786-0; test: Cytotoxicity against Homo sapiens (human) 786-0 cells assessed as growth inhibition at 10 uM after 48 hr by coulter counter analysis; conditions: 786-0, 48 h, read-out: GI
[23] = tested on: SK-MEL-2; test: Cytotoxicity against Homo sapiens (human) SK-MEL-2 cells assessed as growth inhibition at 10 uM after 48 hr by coulter counter analysis; conditions: SK-MEL-2, 48 h, read-out: GI
[24] = tested on: Malme-3M; test: Cytotoxicity against Homo sapiens (human) MALME-3M cells assessed as growth inhibition at 10 uM after 48 hr by coulter counter analysis; conditions: read-out: GI
[25] = tested on: HOP-92; test: Cytotoxicity against Homo sapiens (human) HOP92 cells assessed as growth inhibition at 10 uM after 48 hr by coulter counter analysis; conditions: HOP-92, 48 h, read-out: GI
[26] = tested on: M14; test: Cytotoxicity against Homo sapiens (human) M14 cells assessed as growth inhibition at 10 uM after 48 hr by coulter counter analysis; conditions: M14, 48 h, read-out: GI
[27] = tested on: MOLT-4; test: Cytotoxicity against Homo sapiens (human) MOLT4 cells assessed as growth inhibition at 10 uM after 48 hr by coulter counter analysis; conditions: MOLT-4, 48 h, read-out: GI
[28] = tested on: HT-29; test: Cytotoxicity against Homo sapiens (human) HT-29 cells assessed as growth inhibition at 10 uM after 48 hr by coulter counter analysis; conditions: HT-29, 48 h, read-out: GI
[29] = tested on: K562; test: Cytotoxicity against Homo sapiens (human) K562 cells assessed as growth inhibition at 10 uM after 48 hr by coulter counter analysis; conditions: K562, 48 h, read-out: GI
[30] = tested on: RPMI-8226; test: Cytotoxicity against Homo sapiens (human) RPMI8226 cells assessed as growth inhibition at 10 uM after 48 hr by coulter counter analysis; conditions: RPMI-8226, 48 h, read-out: GI
[31] = tested on: SN12C; test: Cytotoxicity against Homo sapiens (human) SN12C cells assessed as growth inhibition at 10 uM after 48 hr by coulter counter analysis; conditions: read-out: GI
[32] = tested on: LOX IMVI; test: Cytotoxicity against Homo sapiens (human) LOXIMVI cells assessed as growth inhibition at 10 uM after 48 hr by coulter counter analysis; conditions: read-out: GI
[33] = tested on: ACHN; test: Cytotoxicity against Homo sapiens (human) ACHN cells assessed as growth inhibition at 10 uM after 48 hr by coulter counter analysis; conditions: read-out: GI
[34] = tested on: MCF7; test: Cytotoxicity against Homo sapiens (human) MCF7 cells assessed as growth inhibition at 10 uM after 48 hr by coulter counter analysis; conditions: MCF7, 48 h, read-out: GI

| SMILES | inhibition of growth at 10 µM [1] [%] | inhibition of growth at 10 µM [2] [%] | inhibition of growth at 10 µM [3] [%] | inhibition of growth at 10 µM [4] [%] | inhibition of growth at 10 µM [5] [%] | inhibition of growth at 10 µM [6] [%] | inhibition of growth at 10 µM [7] [%] | inhibition of growth at 10 µM [8] [%] | inhibition of growth at 10 µM [9] [%] | inhibition of growth at 10 µM [10] [%] | inhibition of growth at 10 µM [11] [%] | inhibition of growth at 10 µM [12] [%] | inhibition of growth at 10 µM [13] [%] | inhibition of growth at 10 µM [14] [%] | inhibition of growth at 10 µM [15] [%] | inhibition of growth at 10 µM [16] [%] | inhibition of growth at 10 µM [17] [%] | inhibition of growth at 10 µM [18] [%] | inhibition of growth at 10 µM [19] [%] | inhibition of growth at 10 µM [20] [%] | other results |
| --- | --- | --- | --- | --- | --- | --- | --- | --- | --- | --- | --- | --- | --- | --- | --- | --- | --- | --- | --- | --- | --- |
| O=c1[nH]nnc2c1C(c1ccc(Cl)cc1)C1=C(CCCC1)N2 (configuration not stated) | < 10 | < 10 | < 10 | < 10 | < 10 | < 10 | < 10 | < 10 | < 10 | < 10 | 10.4 | < 10 | < 10 | 13.3 | < 10 | 43.4 | 10.2 | 13.5 | < 10 | < 10 | inhibition of growth at 10 µM [21]: 13.5%; inhibition of growth at 10 µM [22]: < 10%; inhibition of growth at 10 µM [23]: < 10%; inhibition of growth at 10 µM [24]: < 10%; inhibition of growth at 10 µM [25]: < 10%; inhibition of growth at 10 µM [26]: < 10%; inhibition of growth at 10 µM [27]: < 10%; inhibition of growth at 10 µM [28]: < 10%; inhibition of growth at 10 µM [29]: < 10%; inhibition of growth at 10 µM [30]: < 10%; inhibition of growth at 10 µM [31]: < 10%; inhibition of growth at 10 µM [32]: < 10%; inhibition of growth at 10 µM [33]: < 10%; inhibition of growth at 10 µM [34]: < 10% |
| COc1ccc(C2C3=C(CCCC3)Nc3nn[nH]c(=O)c32)cc1OC (configuration not stated) | 15.7 | < 10 | < 10 | < 10 | < 10 | < 10 | < 10 | < 10 | 10.7 | < 10 | < 10 | < 10 | < 10 | 21.1 | < 10 | 48.6 | 13.4 | < 10 | < 10 | 12.6 | inhibition of growth at 10 µM [21]: 15.9%; inhibition of growth at 10 µM [22]: < 10%; inhibition of growth at 10 µM [23]: < 10%; inhibition of growth at 10 µM [24]: < 10%; inhibition of growth at 10 µM [25]: 13.3%; inhibition of growth at 10 µM [26]: < 10%; inhibition of growth at 10 µM [27]: < 10%; inhibition of growth at 10 µM [28]: < 10%; inhibition of growth at 10 µM [29]: < 10%; inhibition of growth at 10 µM [30]: < 10%; inhibition of growth at 10 µM [31]: 10.8%; inhibition of growth at 10 µM [32]: < 10%; inhibition of growth at 10 µM [33]: 16%; inhibition of growth at 10 µM [34]: < 10% |
| COc1ccc(C2C3=C(CCCC3)Nc3[nH]c(=S)nc(NC(N)=S)c32)cc1OC (configuration not stated) | 25.4 | < 10 | < 10 | < 10 | < 10 | < 10 | < 10 | < 10 | 10.4 | 40.6 | 15.3 | < 10 | < 10 | 14.2 | < 10 | 43.5 | 23.5 | 43.4 | 10.2 | < 10 | inhibition of growth at 10 µM [21]: 12.8%; inhibition of growth at 10 µM [22]: < 10%; inhibition of growth at 10 µM [23]: 12.6%; inhibition of growth at 10 µM [24]: 10.9%; inhibition of growth at 10 µM [25]: 25.8%; inhibition of growth at 10 µM [26]: < 10%; inhibition of growth at 10 µM [27]: < 10%; inhibition of growth at 10 µM [28]: < 10%; inhibition of growth at 10 µM [29]: 17.6%; inhibition of growth at 10 µM [30]: < 10%; inhibition of growth at 10 µM [31]: < 10%; inhibition of growth at 10 µM [32]: 16.1%; inhibition of growth at 10 µM [33]: 11.4%; inhibition of growth at 10 µM [34]: < 10% |
